Data published in patent US20220356174A1, “PYRIDIN-2-ONE COMPOUNDS USEFUL AS SMARCA2 ANTAGONISTS” (Epizyme, Inc., priority 2018, published 2022).
Like-named read-outs stand apart in the source and are kept apart here.

Legend:
[1] = target: T1, FL-SMARCA2 (full-length human SMARCA2 isoform 1) (Homo sapiens, UniProt P51531); assay: SMARCA2 ATPase activity assay (ADP-Glo, chicken mononucleosome substrate); format: biochemical; details: ATPase assay, enzyme 5 nM, ATP 250 uM, chicken mononucleosome 10 nM, 30 min preincubation
T1 construct: FLAG tag (YKDDDDK) (C); made in house; host or cells: Sf21 insect cells (baculovirus, pFastBacI)
T1 sequence (P51531 with tags, fused parts or gaps): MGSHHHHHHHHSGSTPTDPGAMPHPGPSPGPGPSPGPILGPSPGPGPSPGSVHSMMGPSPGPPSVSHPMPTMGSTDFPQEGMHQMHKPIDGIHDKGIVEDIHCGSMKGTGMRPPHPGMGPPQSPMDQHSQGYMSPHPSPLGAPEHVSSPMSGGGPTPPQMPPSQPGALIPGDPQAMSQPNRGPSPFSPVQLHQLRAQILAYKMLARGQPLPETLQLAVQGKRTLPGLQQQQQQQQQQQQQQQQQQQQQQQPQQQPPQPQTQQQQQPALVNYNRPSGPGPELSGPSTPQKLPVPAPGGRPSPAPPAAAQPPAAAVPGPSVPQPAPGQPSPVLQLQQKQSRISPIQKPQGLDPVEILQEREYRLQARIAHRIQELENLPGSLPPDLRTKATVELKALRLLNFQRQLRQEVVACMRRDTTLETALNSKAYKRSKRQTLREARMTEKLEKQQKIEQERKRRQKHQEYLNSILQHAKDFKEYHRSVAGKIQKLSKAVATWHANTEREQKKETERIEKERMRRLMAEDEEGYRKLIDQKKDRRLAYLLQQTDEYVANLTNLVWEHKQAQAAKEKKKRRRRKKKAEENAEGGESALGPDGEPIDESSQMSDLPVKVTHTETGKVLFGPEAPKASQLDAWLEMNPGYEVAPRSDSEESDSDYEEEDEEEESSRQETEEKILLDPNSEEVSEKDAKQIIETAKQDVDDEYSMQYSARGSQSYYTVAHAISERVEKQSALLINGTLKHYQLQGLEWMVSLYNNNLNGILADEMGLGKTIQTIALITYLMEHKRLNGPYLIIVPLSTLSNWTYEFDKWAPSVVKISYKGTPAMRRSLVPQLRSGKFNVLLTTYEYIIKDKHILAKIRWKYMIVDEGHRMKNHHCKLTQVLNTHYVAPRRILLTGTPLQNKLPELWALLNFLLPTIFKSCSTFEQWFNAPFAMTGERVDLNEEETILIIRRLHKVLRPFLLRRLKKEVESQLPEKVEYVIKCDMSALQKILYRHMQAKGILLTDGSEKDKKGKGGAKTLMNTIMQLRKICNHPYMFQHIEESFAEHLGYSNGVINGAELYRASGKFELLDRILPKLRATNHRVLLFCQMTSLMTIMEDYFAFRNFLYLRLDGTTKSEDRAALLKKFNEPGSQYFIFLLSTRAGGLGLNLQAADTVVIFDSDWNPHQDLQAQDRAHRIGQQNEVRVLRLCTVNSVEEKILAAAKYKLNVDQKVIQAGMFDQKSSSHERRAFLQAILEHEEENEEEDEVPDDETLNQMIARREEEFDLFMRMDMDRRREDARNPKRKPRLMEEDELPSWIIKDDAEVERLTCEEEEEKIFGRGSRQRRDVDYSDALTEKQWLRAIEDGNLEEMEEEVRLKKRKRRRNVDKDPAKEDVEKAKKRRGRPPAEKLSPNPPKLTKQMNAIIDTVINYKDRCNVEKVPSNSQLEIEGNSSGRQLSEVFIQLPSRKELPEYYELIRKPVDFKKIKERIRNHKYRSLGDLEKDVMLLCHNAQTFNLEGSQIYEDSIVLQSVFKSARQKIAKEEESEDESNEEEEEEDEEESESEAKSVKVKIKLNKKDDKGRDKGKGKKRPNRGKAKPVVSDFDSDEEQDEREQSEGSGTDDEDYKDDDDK

A549 cells = assay: High-throughput proliferation (HTP) assay for A549 cells (CellTiter-Glo, 7 days); format: cell-based; details: Homo sapiens, 168 h, read-out: A549 SMARCA2 IC50
Summary of the method: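 A549 cells plated at 62.5 cells/well in F12K + 10% HI-FBS onto pre-dispensed compound, grown 7 days at 37° C., 5% CO2. Viability by CellTiter-Glo luminescence after 30 min at RT; EC50/IC50 from DMSO (0%) and 10 μM Doxorubicin (100%) inhibition controls.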

H358 cells = assay: High-throughput proliferation (HTP) assay for H358 cells (CellTiter-Glo, 7 days); format: cell-based; details: Homo sapiens, NCI-H358, 168 h, read-out: H358 SMARCA2 IC50
Summary of the method: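 Cells were plated at 1,000 cells/well in RPMI 1640 + 10% HI-FBS + 1% pen/strep on pre-dispensed compound and incubated 7 days at 37 °C, 5% CO2. Viability was read as ATP luminescence with CellTiter-Glo after 30 min at RT. DMSO served as 0% and 10 µM doxorubicin as 100% inhibition for EC50/IC50.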

FL-SMARCA4 = FL-SMARCA4 (Homo sapiens, UniProt P51532); assay: SMARCA4 ATPase activity assay (ADP-Glo, chicken mononucleosome substrate)
FL-SMARCA4, sequence (P51532 whole entry): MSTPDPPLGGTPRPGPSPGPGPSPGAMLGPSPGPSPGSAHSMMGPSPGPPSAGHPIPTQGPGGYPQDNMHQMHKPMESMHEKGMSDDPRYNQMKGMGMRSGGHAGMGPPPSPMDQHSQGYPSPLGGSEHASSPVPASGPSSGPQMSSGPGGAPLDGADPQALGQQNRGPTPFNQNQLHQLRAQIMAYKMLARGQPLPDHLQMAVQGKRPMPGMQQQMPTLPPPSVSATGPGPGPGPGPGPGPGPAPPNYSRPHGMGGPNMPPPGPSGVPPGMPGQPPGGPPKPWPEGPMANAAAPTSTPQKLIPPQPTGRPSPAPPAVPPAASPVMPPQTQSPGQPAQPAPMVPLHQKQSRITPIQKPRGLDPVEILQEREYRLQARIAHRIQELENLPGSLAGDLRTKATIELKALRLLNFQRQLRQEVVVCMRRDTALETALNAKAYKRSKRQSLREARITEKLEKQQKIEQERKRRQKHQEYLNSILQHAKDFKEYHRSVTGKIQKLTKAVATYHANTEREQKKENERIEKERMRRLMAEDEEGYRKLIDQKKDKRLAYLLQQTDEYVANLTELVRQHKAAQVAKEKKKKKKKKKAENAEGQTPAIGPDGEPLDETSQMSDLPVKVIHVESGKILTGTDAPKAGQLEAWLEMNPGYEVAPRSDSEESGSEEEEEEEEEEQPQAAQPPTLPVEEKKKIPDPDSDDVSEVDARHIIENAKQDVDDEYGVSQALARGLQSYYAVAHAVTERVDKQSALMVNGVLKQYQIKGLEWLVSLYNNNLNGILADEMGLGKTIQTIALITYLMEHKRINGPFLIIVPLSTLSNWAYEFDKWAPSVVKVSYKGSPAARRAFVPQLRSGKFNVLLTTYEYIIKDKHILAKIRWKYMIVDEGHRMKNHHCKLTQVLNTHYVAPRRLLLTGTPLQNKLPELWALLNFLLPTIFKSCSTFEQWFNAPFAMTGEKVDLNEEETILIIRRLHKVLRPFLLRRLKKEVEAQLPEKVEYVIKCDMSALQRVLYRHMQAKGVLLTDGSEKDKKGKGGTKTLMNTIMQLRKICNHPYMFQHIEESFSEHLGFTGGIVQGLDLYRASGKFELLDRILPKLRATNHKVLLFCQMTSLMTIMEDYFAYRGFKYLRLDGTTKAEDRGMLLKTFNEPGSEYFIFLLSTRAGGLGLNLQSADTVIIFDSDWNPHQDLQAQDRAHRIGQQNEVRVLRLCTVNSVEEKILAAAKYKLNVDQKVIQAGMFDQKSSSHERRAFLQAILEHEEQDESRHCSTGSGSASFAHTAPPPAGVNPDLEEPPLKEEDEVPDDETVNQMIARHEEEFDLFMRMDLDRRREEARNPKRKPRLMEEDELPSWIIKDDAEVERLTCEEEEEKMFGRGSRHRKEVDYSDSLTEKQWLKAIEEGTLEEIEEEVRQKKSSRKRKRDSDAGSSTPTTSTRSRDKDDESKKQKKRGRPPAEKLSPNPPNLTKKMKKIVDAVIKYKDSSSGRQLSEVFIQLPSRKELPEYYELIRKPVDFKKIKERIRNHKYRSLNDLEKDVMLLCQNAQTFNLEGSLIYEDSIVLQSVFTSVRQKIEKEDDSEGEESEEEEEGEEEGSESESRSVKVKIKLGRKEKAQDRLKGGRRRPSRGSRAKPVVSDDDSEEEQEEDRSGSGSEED

[2] = FL-SMARCA4 IC>50, Table 3c.2, ATPase assay, enzyme 5 nM, ATP 250 uM, chicken mononucleosome 10 nM, 30 min preincubation
[3] = Table 3d.1, read-out: FL-SMARCA2 IC>50
[4] = FL-SMARCA4 IC50, Table 3.2, ATPase assay, enzyme 5 nM, ATP 250 uM, chicken mononucleosome 10 nM, 30 min preincubation

Compound	IC50 ([1]; Table 3c.1)	IC50 (A549 cells)	IC50 (H358 cells)	IC50 (FL-SMARCA4; [2])	IC50 [1, 3]	IC50 (FL-SMARCA4; FL-SMARCA4 IC50)	IC50 ([1]; Table 3.1)	IC50 (FL-SMARCA4; [4])
O=C(Nc1cc(F)c(=O)n(CC(F)F)c1)c1cc(C#CC2COC2)cs1 [Compound 73c]	0.847 µM	6.01 µM	> 10 µM	2.93 µM	–	–	–	–
Cn1cc(C#Cc2cc(C(=O)Nc3cc(C#N)c(=O)n(CC(F)F)c3)sc2Cl)cn1 [Compound 93d]	–	3.93 µM	> 10 µM	–	0.0431 µM	0.147 µM	–	–
N#Cc1cc(C(=O)Nc2cc(F)c(=O)n(CC(F)F)c2)sc1C(F)(F)Cl [Compound 78d]	–	6.37 µM	> 10 µM	–	0.0575 µM	0.377 µM	–	–
C[C@]1(C#Cc2cc(C(=O)Nc3cc(F)c(=O)n(CC(F)F)c3)sc2Cl)C[C@@H](O)C1 [Compound 136d]	–	2.22 µM	> 10 µM	–	0.0419 µM	0.0852 µM	–	–
COc1cccc(C#Cc2cc(C(=O)Nc3cc(F)c(=O)n(CC(F)F)c3)sc2Cl)c1 [Compound 42c]	0.203 µM	5.08 µM	> 10 µM	0.477 µM	–	–	–	–
O=C(Nc1cc(F)c(=O)n(CC(F)F)c1)c1cc(C#Cc2cnc3n2CCOC3)c(Cl)s1 [Compound 95d]	–	> 10 µM	> 10 µM	–	0.334 µM	1.06 µM	–	–
O=C(Nc1cc(F)c(=O)n(CC(F)F)c1)c1cc(-c2ccco2)on1 [Compound 124d]	–	> 10 µM	> 10 µM	–	> 50 µM	> 50 µM	–	–
CS(=O)(=O)c1cccc(C#Cc2cc(C(=O)Nc3cc(F)c(=O)n(CC(F)F)c3)sc2Cl)c1 [Compound 98c]	0.108 µM	3.29 µM	> 10 µM	0.287 µM	–	–	–	–
O=C(Nc1cc(F)c(=O)n(CC(F)F)c1)c1cc(C#CCn2cnnc2)c(Cl)s1 [Compound 126d]	–	> 10 µM	> 10 µM	–	1.58 µM	4.37 µM	–	–
N#Cc1cc(C(=O)Nc2cc(F)c(=O)n(CC3(F)CC3)c2)sc1C(F)(F)F [Compound 85d]	–	4.17 µM	> 10 µM	–	0.104 µM	0.596 µM	–	–
O=C(Nc1cc(F)c(=O)n(CC(F)F)c1)c1cc(C#Cc2nncs2)c(Cl)s1 [Compound 130d]	–	3.37 µM	6.75 µM	–	0.0309 µM	0.132 µM	–	–
O=C(Nc1cc(F)c(=O)n(CC(F)F)c1)c1cc(C#CC2COCCO2)c(Cl)s1 (stereo not drawn) [Compound 114d]	–	2.73 µM	> 10 µM	–	0.112 µM	0.372 µM	–	–
C#Cc1cc(NC(=O)c2cc(F)c(Cl)s2)cn(CC(F)F)c1=O [Compound 342]	–	9.49 µM	> 10 µM	–	–	–	0.278 µM	0.739 µM
CN1CC(C#Cc2cc(C(=O)Nc3cc(F)c(=O)n(CC(F)F)c3)sc2Cl)CC1=O (stereo not drawn) [Compound 113d]	–	> 10 µM	> 10 µM	–	0.967 µM	2.88 µM	–	–
CN1CCn2cc(C#Cc3cc(C(=O)Nc4cc(F)c(=O)n(CC(F)F)c4)sc3Cl)nc2C1 [Compound 146c]	9.54 µM	> 10 µM	> 10 µM	15.3 µM	–	–	–	–
CNC(=O)C#Cc1cc(C(=O)Nc2cc(F)c(=O)n(CC(F)F)c2)sc1Cl [Compound 72d]	–	5.76 µM	> 10 µM	–	0.481 µM	1.31 µM	–	–
O=C(Nc1cc(F)c(=O)n(CC(F)F)c1)c1cc(C#Cc2ccc(Cl)cc2)c(Cl)s1 [Compound 35c]	0.698 µM	3.7 µM	8.76 µM	0.905 µM	–	–	–	–

Compound	IC50 ([1]; Table 3c.1)	IC50 (A549 cells)	IC50 (H358 cells)	IC50 (FL-SMARCA4; [2])	IC50 [1, 3]	IC50 (FL-SMARCA4; FL-SMARCA4 IC50)	IC50 ([1]; Table 3.1)	IC50 (FL-SMARCA4; [4])
CC(=O)NC1COCC(C#Cc2cc(C(=O)Nc3cc(F)c(=O)n(CC(F)F)c3)sc2Cl)C1 (stereo not drawn) [Compound 57d]	–	> 10 µM	> 10 µM	–	0.0516 µM	0.191 µM	–	–
O=C(Nc1cc(F)c(=O)n(CC(F)F)c1)c1cc(C#CC2CCn3cnnc3C2)c(Cl)s1 (stereo not drawn) [Compound 119d]	–	> 10 µM	> 10 µM	–	0.961 µM	2.22 µM	–	–
Nc1cc(C#Cc2cc(C(=O)Nc3cc(F)c(=O)n(CC(F)F)c3)sc2Cl)ccn1 [Compound 124c]	0.0109 µM	1.07 µM	7.23 µM	0.0177 µM	–	–	–	–
O=C(Nc1cc(F)c(=O)n(CC(F)F)c1)c1cc(C#Cc2ccccc2)c(Cl)s1 [Compound 41c]	0.0827 µM	4.27 µM	> 10 µM	0.25 µM	–	–	–	–
O=C(Nc1cc(F)c(=O)n(CC(F)F)c1)c1cnc(C(F)(F)F)s1 [Compound 297, N-(1-(2,2-difluoroethyl)-5-fluoro-6-oxo-1,6-dihydropyridin-3-yl)-2-(trifluoromethyl)thiazole-5-carboxamide]	–	2.09 µM	> 10 µM	–	–	–	0.0757 µM	0.448 µM
CNS(=O)(=O)c1cccc(C#Cc2cc(C(=O)Nc3cc(F)c(=O)n(CC(F)F)c3)sc2Cl)c1 [Compound 99c]	0.0406 µM	1.7 µM	> 10 µM	0.0801 µM	–	–	–	–
O=C(Nc1cc(F)c(=O)n(CC(F)F)c1)c1cc(C#CC2CCS(=O)(=O)CC2)c(Cl)s1 [Compound 99d]	–	6.68 µM	> 10 µM	–	0.195 µM	0.244 µM	–	–
N#Cc1cc(C(=O)Nc2cc(F)c(=O)n(CC(F)F)c2)sc1C(F)F [Compound 69d]	–	2.04 µM	> 10 µM	–	0.0266 µM	0.12 µM	–	–
O=C(Nc1cc(F)c(=O)n(CC(F)F)c1)c1cc(C#CC2COC2)c(Cl)s1 [Compound 343]	–	0.492 µM	> 10 µM	–	–	–	0.023 µM	0.107 µM
CNC(=O)c1ncc(C#Cc2cc(C(=O)Nc3cc(F)c(=O)n(CC(F)F)c3)sc2Cl)o1 [Compound 67d]	–	2.12 µM	> 10 µM	–	0.0146 µM	0.0372 µM	–	–
COc1cncc(C#Cc2cc(C(=O)Nc3cc(F)c(=O)n(CC(F)F)c3)sc2Cl)c1 [Compound 61d]	–	4.33 µM	> 10 µM	–	0.197 µM	0.655 µM	–	–
CC(F)(F)c1sc(C(=O)Nc2cc(F)c(=O)n(CC(F)F)c2)cc1C#N [Compound 83d]	–	> 10 µM	> 10 µM	–	0.465 µM	2.39 µM	–	–
Cn1cnc(C#Cc2cc(C(=O)Nc3cc(F)c(=O)n(CC(F)F)c3)sc2Cl)n1 [Compound 67c]	0.371 µM	> 10 µM	> 10 µM	0.807 µM	–	–	–	–
O=C(Nc1cc(F)c(=O)n(CC(F)F)c1)c1cc(C#CC2CCO2)c(Cl)s1 (stereo not drawn) [Compound 77d]	–	7.44 µM	> 10 µM	–	0.16 µM	0.463 µM	–	–
N#Cc1cc(C#Cc2cc(C(=O)Nc3cc(F)c(=O)n(CC(F)F)c3)sc2Cl)ccn1 [Compound 151c]	0.0296 µM	0.889 µM	4.86 µM	0.111 µM	–	–	–	–
O=C(Nc1cc(F)c(=O)n(CC(F)F)c1)c1cc(C#CC2OCCCO2)c(Cl)s1 [Compound 101d]	–	3.74 µM	> 10 µM	–	0.166 µM	0.285 µM	–	–
